US10168342B2, “Lipid probes and uses thereof” (THE SCRIPPS RESEARCH INSTITUTE, priority 2015, dated 2019)
Read-outs that look alike come from different tables or passages of the source.

Experiments:
[1] = target: T1, AEA-DA lipid probe targets in Neuro2a cells (Mus musculus, UniProt Q99JH8)
T1 sequence (Q99JH8 1-212): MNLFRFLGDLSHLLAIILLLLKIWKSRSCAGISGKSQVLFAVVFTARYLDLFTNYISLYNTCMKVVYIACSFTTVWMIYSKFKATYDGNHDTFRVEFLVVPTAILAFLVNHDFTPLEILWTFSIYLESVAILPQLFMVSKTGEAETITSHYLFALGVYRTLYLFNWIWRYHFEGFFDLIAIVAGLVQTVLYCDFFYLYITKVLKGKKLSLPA

[2] = target: T2, AEA-DA lipid probe targets in Neuro2a cells (Mus musculus, UniProt Q8C0L0)
T2 sequence (Q8C0L0 21-335): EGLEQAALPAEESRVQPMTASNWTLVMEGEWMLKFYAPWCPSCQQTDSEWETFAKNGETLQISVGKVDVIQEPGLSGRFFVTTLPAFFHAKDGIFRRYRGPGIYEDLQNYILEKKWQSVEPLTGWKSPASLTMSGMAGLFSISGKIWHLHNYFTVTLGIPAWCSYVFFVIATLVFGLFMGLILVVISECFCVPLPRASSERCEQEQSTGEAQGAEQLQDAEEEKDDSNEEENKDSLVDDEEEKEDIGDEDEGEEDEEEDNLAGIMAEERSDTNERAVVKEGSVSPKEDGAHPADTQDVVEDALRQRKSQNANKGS

[3] = target: AEA-DA lipid probe targets in Neuro2a cells (Mus musculus, UniProt Q9Z0V8)
[4] = target: T3, AEA-DA lipid probe targets in Neuro2a cells (Mus musculus, UniProt G5E829)
T3 sequence (G5E829 1-1220): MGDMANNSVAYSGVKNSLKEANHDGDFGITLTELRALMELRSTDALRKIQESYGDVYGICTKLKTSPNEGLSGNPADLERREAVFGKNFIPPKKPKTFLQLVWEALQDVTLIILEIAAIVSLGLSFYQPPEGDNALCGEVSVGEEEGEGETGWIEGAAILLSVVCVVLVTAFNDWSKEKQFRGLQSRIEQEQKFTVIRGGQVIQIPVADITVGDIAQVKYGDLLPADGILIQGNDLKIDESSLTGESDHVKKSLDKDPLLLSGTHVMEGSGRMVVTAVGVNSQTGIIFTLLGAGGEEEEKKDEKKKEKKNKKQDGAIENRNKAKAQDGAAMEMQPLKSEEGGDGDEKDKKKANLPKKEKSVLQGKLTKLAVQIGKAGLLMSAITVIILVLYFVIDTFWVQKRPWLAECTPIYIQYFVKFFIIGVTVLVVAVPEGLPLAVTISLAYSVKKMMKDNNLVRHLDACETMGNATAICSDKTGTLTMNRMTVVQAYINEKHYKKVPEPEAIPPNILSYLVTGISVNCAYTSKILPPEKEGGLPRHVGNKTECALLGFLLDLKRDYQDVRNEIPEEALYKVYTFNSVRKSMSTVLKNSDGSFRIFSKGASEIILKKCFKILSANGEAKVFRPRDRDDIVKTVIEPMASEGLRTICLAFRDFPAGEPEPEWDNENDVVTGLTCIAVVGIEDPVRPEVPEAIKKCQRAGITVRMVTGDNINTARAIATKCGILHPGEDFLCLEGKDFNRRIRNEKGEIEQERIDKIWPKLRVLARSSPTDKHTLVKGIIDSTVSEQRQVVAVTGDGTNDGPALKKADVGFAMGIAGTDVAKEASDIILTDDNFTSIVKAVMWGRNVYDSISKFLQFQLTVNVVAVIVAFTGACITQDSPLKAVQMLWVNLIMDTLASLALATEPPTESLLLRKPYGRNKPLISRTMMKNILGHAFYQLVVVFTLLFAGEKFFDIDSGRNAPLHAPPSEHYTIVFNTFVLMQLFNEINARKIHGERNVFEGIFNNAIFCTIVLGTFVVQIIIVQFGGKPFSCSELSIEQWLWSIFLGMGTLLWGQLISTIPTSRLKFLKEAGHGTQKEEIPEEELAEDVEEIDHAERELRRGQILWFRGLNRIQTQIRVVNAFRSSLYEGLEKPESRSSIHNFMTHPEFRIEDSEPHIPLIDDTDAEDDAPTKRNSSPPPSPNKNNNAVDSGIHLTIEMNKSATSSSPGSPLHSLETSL

[5] = target: T4, AEA-DA lipid probe targets in Neuro2a cells (Mus musculus, UniProt P09103)
T4 sequence (P09103 20-509): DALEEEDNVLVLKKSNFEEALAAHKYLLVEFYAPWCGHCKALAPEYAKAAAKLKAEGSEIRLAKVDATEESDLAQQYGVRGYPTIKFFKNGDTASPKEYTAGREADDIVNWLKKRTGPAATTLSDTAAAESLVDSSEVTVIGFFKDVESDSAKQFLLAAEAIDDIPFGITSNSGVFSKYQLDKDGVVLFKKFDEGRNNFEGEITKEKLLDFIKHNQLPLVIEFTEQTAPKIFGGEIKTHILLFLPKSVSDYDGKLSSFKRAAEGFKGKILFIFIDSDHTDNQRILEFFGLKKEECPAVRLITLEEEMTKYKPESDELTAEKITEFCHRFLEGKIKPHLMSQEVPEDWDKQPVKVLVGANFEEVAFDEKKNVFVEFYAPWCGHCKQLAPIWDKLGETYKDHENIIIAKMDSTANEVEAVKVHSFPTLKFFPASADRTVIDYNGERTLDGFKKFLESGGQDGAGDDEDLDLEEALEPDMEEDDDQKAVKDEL

[6] = target: T5, AEA-DA lipid probe targets in Neuro2a cells (Mus musculus, UniProt Q9D6K9)
T5 sequence (Q9D6K9 1-414): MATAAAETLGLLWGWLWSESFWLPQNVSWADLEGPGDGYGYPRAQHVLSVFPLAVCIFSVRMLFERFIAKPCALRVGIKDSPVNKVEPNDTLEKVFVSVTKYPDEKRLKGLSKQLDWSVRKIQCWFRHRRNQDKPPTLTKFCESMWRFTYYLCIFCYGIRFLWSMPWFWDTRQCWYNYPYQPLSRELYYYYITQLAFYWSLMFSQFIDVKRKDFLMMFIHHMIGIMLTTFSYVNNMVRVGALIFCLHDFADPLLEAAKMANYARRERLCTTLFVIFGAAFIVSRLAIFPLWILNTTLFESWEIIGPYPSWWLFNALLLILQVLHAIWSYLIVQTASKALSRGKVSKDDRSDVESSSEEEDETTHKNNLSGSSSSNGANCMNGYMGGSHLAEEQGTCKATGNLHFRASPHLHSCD

Sequence of AEA-DA lipid probe targets in Neuro2a cells (Mus musculus, UniProt Q9Z0V8) (Q9Z0V8 whole entry): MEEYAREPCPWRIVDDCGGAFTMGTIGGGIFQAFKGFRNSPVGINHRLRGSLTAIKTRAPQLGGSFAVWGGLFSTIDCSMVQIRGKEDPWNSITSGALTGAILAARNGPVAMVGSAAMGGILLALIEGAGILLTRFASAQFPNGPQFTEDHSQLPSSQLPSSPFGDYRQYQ

O=C(/C=C/c1cccnc1)NCCCCC1CCN(C(=O)c2ccccc2)CC1 [FK-866, reference compound]
SILAC ratio Kdelr1 ([1]; competitor 25 μM): 1.1 | SILAC ratio Tmx4 ([2]; competitor 25 μM): 1.0 | SILAC ratio, Timm17a ([3]; competitor 25 μM): 1.1 | SILAC ratio Atp2b1 ([4]; competitor 25 μM): 1.2 | SILAC ratio P4hb ([5]; competitor 25 μM): 1.4 | SILAC ratio, Cers5 ([6]; competitor 25 μM): 1.1

CCCCC/C=C\C/C=C\C/C=C\C/C=C\CCCC(=O)NCCO [AEA, anandamide, reference compound]
SILAC ratio Kdelr1 ([1]; competitor 200 μM): 1.2 | SILAC ratio Tmx4 ([2]; competitor 200 μM): 1.9 | SILAC ratio, Timm17a ([3]; competitor 200 μM): 1.5 | SILAC ratio Atp2b1 ([4]; competitor 200 μM): 1.6 | SILAC ratio P4hb ([5]; competitor 200 μM): 1.2 | SILAC ratio, Cers5 ([6]; competitor 200 μM): 2.1

CN1CCN(C(=O)c2c(-c3ccccc3)c3cc([N+](=O)[O-])ccc3n2C)CC1 [KML110, (1-Methyl-5-nitro-3-phenyl-1H-indol-2-yl)(4-methylpiperazin-1-yl)methanone]
SILAC ratio Kdelr1 ([1]; competitor 25 μM): 1.1 | SILAC ratio Tmx4 ([2]; competitor 25 μM): 1.4 | SILAC ratio, Timm17a ([3]; competitor 25 μM): 1.5 | SILAC ratio Atp2b1 ([4]; competitor 25 μM): 1.8 | SILAC ratio P4hb ([5]; competitor 25 μM): 1.8 | SILAC ratio, Cers5 ([6]; competitor 25 μM): 1.6

C=CCN(C)CCCCCCOc1ccc(C(=O)c2ccc(Br)cc2)c(F)c1 [Ro 48-8071, reference compound]
SILAC ratio Kdelr1 ([1]; competitor 25 μM): 1.0 | SILAC ratio Tmx4 ([2]; competitor 25 μM): 1.2 | SILAC ratio, Timm17a ([3]; competitor 25 μM): 2.7 | SILAC ratio Atp2b1 ([4]; competitor 25 μM): 1.1 | SILAC ratio P4hb ([5]; competitor 25 μM): 1.0 | SILAC ratio, Cers5 ([6]; competitor 25 μM): 1.3

CN1CCN(C(=O)c2[nH]c3ccc([N+](=O)[O-])cc3c2-c2ccccc2)CC1 [MJN228, (4-Methylpiperazin-1-yl)(5-nitro-3-phenyl-1H-indol-2-yl)methanone]
SILAC ratio Kdelr1 ([1]; competitor 10 μM): 1.1 | SILAC ratio Kdelr1 ([1]; competitor 25 μM): 1.2 | SILAC ratio Kdelr1 ([1]; competitor 50 μM): 1.5 | SILAC ratio Kdelr1 ([1]; competitor 100 μM): 1.5 | SILAC ratio Tmx4 ([2]; competitor 10 μM): 1.0 | SILAC ratio Tmx4 ([2]; competitor 25 μM): 1.3 | SILAC ratio Tmx4 ([2]; competitor 50 μM): 1.3 | SILAC ratio Tmx4 ([2]; competitor 100 μM): 1.6 | SILAC ratio, Timm17a ([3]; competitor 10 μM): 1.1 | SILAC ratio, Timm17a ([3]; competitor 25 μM): 1.4 | SILAC ratio, Timm17a ([3]; competitor 50 μM): 1.4 | SILAC ratio, Timm17a ([3]; competitor 100 μM): 2.7 | SILAC ratio Atp2b1 ([4]; competitor 10 μM): 1.1 | SILAC ratio Atp2b1 ([4]; competitor 25 μM): 1.4 | SILAC ratio Atp2b1 ([4]; competitor 50 μM): 1.4 | SILAC ratio Atp2b1 ([4]; competitor 100 μM): 1.7 | SILAC ratio P4hb ([5]; competitor 10 μM): 1.3 | SILAC ratio P4hb ([5]; competitor 25 μM): 1.5 | SILAC ratio P4hb ([5]; competitor 50 μM): 2.0 | SILAC ratio P4hb ([5]; competitor 100 μM): 2.2 | SILAC ratio, Cers5 ([6]; competitor 10 μM): 1.2 | SILAC ratio, Cers5 ([6]; competitor 25 μM): 1.8 | SILAC ratio, Cers5 ([6]; competitor 50 μM): 2.1 | SILAC ratio, Cers5 ([6]; competitor 100 μM): 3.0
